{
  "source": "paper PMC9845330",
  "about": "(Communications Biology, 2023)",
  "key": {"[1]": {"test_system": "H1993 cells", "test": "Cell internalization by flow cytometry, absolute uptake (molecules per cell)", "assay_type": "cell-based, human", "settings": "for Molecules Internalized Per Cell: Average", "description": "(§1) Optimizing MGS4 as a monomer is efficient but the optimal valency of the truncated peptide may be different than that of the full-length peptide. The peptide was synthesized as a monomer (MGS4_V8), dimer (MGS4_V9), and tetramer (MGS4_V10). To obtain quantitative data, we moved from measuring the relative fluorescence of dye-labeled peptide to the determination of the average number of dye molecules internalized per cell. […] The dimer MGS4_V9 has an EC50 7-fold lower indicating there is a synergistic effect in going from a monomer to a dimer (Fig. 2a and Table 2). However, there is only a 2-fold decrease in going from a dimer to a tetrameric peptide (MGS4_V10). We also calculated the EC50 on three other NSCLC cell lines (Table 2 and Supplementary Figure 3). […] The average number of peptides internalized per cell at saturating conditions varies, with H1993 cells internalizing the highest number of peptides at all three valencies (Table 2). This is likely due to differing levels of receptor expression on the cell type. The average molecules internalized at 50 nM in one hour follows the same trend (Fig. 2b).\n(§2) Biotinylated peptide was conjugated to streptavidin-R-phycoerythrin or streptavidin-Alexa Fluor 647 (1:1 molar ratio) for 30 min. The open binding sites on streptavidin were quenched with RPMI 1640 and diluted to the indicated concentration. Tumor cells were grown to 90% confluency in a 12 well plate, then incubated with 500 µl peptide-dye conjugate at 37 °C. After 1 h, peptide was removed, and the cells were washed 3x with PBS (137 mM NaCl, 2.7 mM KCl, 10 mM Na2HPO4, 1.8 mM KH2PO4, pH 7.4), 2x with 0.1 M HCl-glycine pH2.2 in 0.9% NaCl, and 1x PBS rinse. Cells were removed by trypsinization. Flow cytometry was performed on a BD FACSCelesta, and data were analyzed on Flowing software. Cells were gated based on the forward and side scatter to include only viable cells and a minimum of 10,000 events were counted. A region containing <5% of the cells in the negative control was established, and relative peptide uptake by the mean fluorescence intensity of that population. For absolute peptide uptake per cell, a standard curve was generated using Quantum™ Alexa Fluor 647 microspheres (Bangs Laboratory, Fishers, IN). A representative linear regression showing the correlation of molecule equivalents soluble fluorophores (MESF) vs the mean fluorescence intensity (MFI) is shown in Supplemental Figure 6. Cells were gated based on the forward and side scatter to include only viable cells and a minimum of 10,000 events were counted. MFI was determined at 50% at peak height. Molecules internalized per cell were determined by the standard curve relating MESF to MFI and divided by the number dye molecules/MGS conjugate. An example is shown in supplemental Figure 7. GraphPad Prism® was used for non-linear regression curve fitting to calculate an EC50. Parameters and statistical analysis are provided (Supplementary Tables 2–6). Experiments were repeated a minimum of three times.\n(§3) For all EC50 determinations, each peptide variant was tested on the indicated cell line with a minimum of 3 biological replicates and analyzed individually by flow cytometry. The standard error measurement for each concentration is indicated by error bars in the figures. For experiments in which absolute number of molecules internalized was measured at different concentrations, EC50 were determined by GraphPad Prism® using nonlinear regression curve fitting for log(agonist) vs. response–Variable slope (four parameters). For the truncation experiments, EC50 were determined using one-site-specific binding. Similarly, IC50s were calculated using GraphPad Prism® using log(agonist) vs. response–Variable slope (four parameters). A minimum of four biological replicates were performed for each variant and cell line. Data for individual experiments are included in supplementary files. Parameters and statistical analysis are provided in Supplementary Tables 2–7. […]"}, "[2]": {"test_system": "H2009 cells", "test": "Cell internalization by flow cytometry, absolute uptake (molecules per cell)", "assay_type": "cell-based, human", "settings": "for Molecules Internalized Per Cell: Average", "description": "as §1, §2, §3"}},
  "note": "Non-standard residues stand in square brackets, D forms with d. Residues, ends and D or L forms follow the SMILES beside them. *: point of attachment. X1 = O=C(CCCC[C@@H]1SC[C@@H]2NC(=O)N[C@@H]21)NCCCOCCOCCOCCCN*; PEG12 = NCCOCCOCCOCCOCCOCCOCCOCCOCCOCCOCCOCCOCCC(=O)O",
  "data": [
    {"compound": "CC(=O)N[C@@H](Cc1ccccc1)C(=O)N[C@@H](Cc1c[nH]cn1)C(=O)N[C@@H](C)C(=O)N[C@H](C(=O)N1CCC[C@H]1C(=O)N[C@@H](CCC(N)=O)C(=O)N[C@@H](CO)C(=O)N[C@@H](Cc1ccccc1)C(=O)N[C@@H](Cc1ccc(O)cc1)C(=O)N[C@H](C(=O)NCCOCCOCCOCCOCCOCCOCCOCCOCCOCCOCCOCCOCCC(=O)N[C@@H](CCC(=O)NCCCOCCOCCOCCCNC(=O)CCCC[C@@H]1SC[C@@H]2NC(=O)N[C@@H]21)C(N)=O)[C@@H](C)O)C(C)C", "note": "[MGS4_V8] (Ac-FHAVPQSFYT[PEG12]E(X1)-NH2)", "values": [
      {"measurement": "Molecules Internalized Per Cell", "setting": "[1]; 0.01 nM", "value": 0},
      {"measurement": "Molecules Internalized Per Cell", "setting": "[1]; 1 nM", "value": 57},
      {"measurement": "Molecules Internalized Per Cell", "setting": "[1]; 10 nM", "value": 3584},
      {"measurement": "Molecules Internalized Per Cell", "setting": "[1]; 20 nM", "value": 36850},
      {"measurement": "Molecules Internalized Per Cell", "setting": "[1]; 30 nM", "value": 42262},
      {"measurement": "Molecules Internalized Per Cell", "setting": "[1]; 40 nM", "value": 55296},
      {"measurement": "Molecules Internalized Per Cell", "setting": "[1]; 50 nM", "value": 88510},
      {"measurement": "Molecules Internalized Per Cell", "setting": "[1]; 60 nM", "value": 76327},
      {"measurement": "Saturation (molecules)", "setting": "[1]; H1993 Cells", "value": "119,000 ± 57,500 molecules"},
      {"measurement": "HillSlope", "setting": "[1]; Supplementary Table 6", "value": 1.706},
      {"measurement": "LogIC50", "setting": "[1]; Supplementary Table 6", "value": -7.427},
      {"measurement": "Top", "setting": "[1]; Supplementary Table 6", "value": 118643},
      {"measurement": "Molecules Internalized Per Cell", "setting": "[2]; 1 nM", "value": 0},
      {"measurement": "Molecules Internalized Per Cell", "setting": "[2]; 10 nM", "value": 1006},
      {"measurement": "Molecules Internalized Per Cell", "setting": "[2]; 20 nM", "value": 3516},
      {"measurement": "Molecules Internalized Per Cell", "setting": "[2]; 30 nM", "value": 15550},
      {"measurement": "Molecules Internalized Per Cell", "setting": "[2]; 40 nM", "value": 22008},
      {"measurement": "Molecules Internalized Per Cell", "setting": "[2]; 50 nM", "value": 28764},
      {"measurement": "Molecules Internalized Per Cell", "setting": "[2]; 60 nM", "value": 30384},
      {"measurement": "Molecules Internalized Per Cell", "setting": "[2]; 80 nM", "value": 38906},
      {"measurement": "Saturation (molecules)", "setting": "[2]; H2009 Cells", "value": "40,600 ± 2630 molecules"},
      {"measurement": "HillSlope", "setting": "[2]; Supplementary Table 4", "value": 3.175},
      {"measurement": "LogIC50", "setting": "[2]; Supplementary Table 4", "value": -7.424},
      {"measurement": "Top", "setting": "[2]; Supplementary Table 4", "value": 40633}
    ]}
  ]
}
